From US10160705B2, “Class of HDAC inhibitors expands the renal progenitor cells population and improves the rate of recovery from acute kidney injury” (University of Pittsburgh—Of the Commonwealth System of …, priority 2011, dated 2018)
Read-outs that look alike come from different tables or passages of the source.

Tests used:
kidney field = experiment: In situ hybridization for kidney markers (pax2a, pax8, cdh17, wt1a, slc4a4, slcl2a1); assay type: in vivo, zebrafish; settings: in situ hybridization, data not shown
Experimental: PTBA was synthesized as described below. Hydroxyurea and aphidicolin were obtained from Sigma-Aldrich.
In situ hybridization and immunocytochemistry: In situ hybridization was performed as previously described with some modifications.142 Hybridization temperature was 65° C. Embryos were blocked in 2% blocking reagent (Roche) with 5% sheep serum in MAB (100 mM maleic acid and 150 mM NaCl [pH 7.5]). Whole-mount immunocytochemistry with 1:25 mouse anti-α6F antibody (Developmental Studies Hybridoma Bank) and 1:100 Cy3 secondary antibody (Jackson ImmunoResearch) was performed as described previously.108 Embryos were embedded in JB-4 for sectioning per the manufacturer's instructions (Polysciences), sectioned at 5 μm, and mounted with Cytoseal 60 (Richard-Allan Scientific).

zebrafish embryos = experiment: Phenotypic screen for edema and survival in zebrafish larvae at 72 hpf; settings: for phenotype in initial chemical screen: 10 μM, larvae at 72 hpf; for Dead / Edemic 1 (E1) / Edemic 2 (E2) / Edemic 3 (E3) / Wild-type (WT): number of larvae (of 36), 3 μM from 2 hpf, scored at 72 hpf
Experimental: The screen was performed in zebrafish embryos using the National Cancer Institute's Developmental Therapeutics Program (NCI/DTP) Diversity Set I. This library contains 1990 compounds selected by pharmacophore modeling to represent the more than 140,000 small molecules maintained in the NCI/DTP Open Repository. Compounds from the NCI/DTP Diversity Set I were diluted to 10 μM in E3 embryo medium (5 mM NaCl, 0.33 mM CaCl2, 0.33 mM MgSO4, and 0.17 mM KCl) in a final DMSO concentration of 0.5% and arrayed in 96-well plates. Beginning at approximately 2 hpf, embryos were transferred to each well in groups of five using a glass pipette. The plates were incubated at 28.5° C. for 70 hours. Individual wells were then scored for a dominant phenotype, representative of at least four of the five embryos. The primary objective was to identify compounds that caused edema in treated embryos at 72 hpf. Small molecules generating edema were retested once for verification, before obtaining additional compound from the NCI/DTP Open Repository.
PTBA was synthesized as described below. Hydroxyurea and aphidicolin were obtained from Sigma-Aldrich. Groups of 20 to 30 chorionated 2 hpf embryos were arrayed in individual wells of 12-well plates. E3 medium was removed with a glass pipette and replaced with 1.5 ml treatment solutions containing 0.5% DMSO in E3 with or without compound at the reported concentrations. Treatments for all studies were initiated at 2 hpf, except for the temporal studies (FIG. 6) and the HUA studies (FIG. 11). HUA studies were performed as described previously (Zhang, L., et al. Cell cycle progression is required for zebrafish somite morphogenesis but not segmentation clock function. Development 135, 2065-2070, (2008)), with the following modifications. HUA in 0.5% DMSO was added at early gastrulation (5 hpf) and PTBA was subsequently added at late gastrulation (8 hpf) to allow for penetration of the proliferation inhibitors. All embryos were incubated at 28.5° C. until the required developmental stage.
Following 70 hours of treatment (as described above), edemic phenotypes in 72 hpf larvae were scored using a phenotype-based classification system. Wild type: no visible edema or developmental delay. […] Significant effects (p<0.05) on survival were determined by two-tailed Fisher's exact test in comparison with the 0 μM PTBA treatment group.
PTBA and methyl-4-(phenylthio)butanoate were synthesized as described above. 4-(Naphthalen-2-ylthio)butanoic acid (NSC2733) and 3-(phenylthio)benzoic acid (NSC113994), were obtained from the NCI/DTP Open Repository. APHA compound 8, Apicidin, butanoic acid, PBA, 4-phenoxybutanoic acid, 5-phenylpentanoic acid, Scriptaid, TSA, and valproic acid were obtained from Sigma-Aldrich. MS-275 and SAHA were obtained from Cayman Chemical Co. 4-(phenylsulfonyl)butanoic acid was obtained from Matrix Scientific. Tubacin was a gift of Dr. Ralph Mazitschek of the Broad Institute (Cambridge, Mass.). The remaining PTBA analogs were synthesized. Three independent groups of 12 chorionated 2 hpf embryos were arrayed in individual wells of 24-well plates. E3 medium was removed with a glass pipette and replaced with 800 μl treatment solutions containing 0.5% DMSO in E3 with or without compound at the reported concentrations.
Phenotypic screening of PTBA analogs was performed identically to the concentration-response experiments detailed above. Embryos were treated with each PTBA analog from 2 to 72 hpf as described above.

human HDACs = experiment: Fluorescence histone deacetylation assay with HeLa cell nuclear extract; assay type: biochemical; settings: 5 mM compound
Experimental: To evaluate this in vitro, the deacetylation of a fluorescent peptide substrate was measured in the presence of human HDACs.
In vitro HDAC activity assays were performed using a fluorescence HDAC assay kit (Active Motif) according to the manufacturer's instructions. For maintaining compound solubility at 5 mM, the final DMSO concentration in all assay wells was increased to 5%. Fluorescence was detected using an M5 Plate Reader ([…])

renal progenitor cells = experiment: In situ hybridization for lhx1a expression in 10-somite embryos (renal progenitor cell expansion); assay type: in vivo; on Lhx1a expansion caused by analog treatment, 200 nM: key: effective (+); partially effective (+/−); ineffective (−); Analogs that killed all embryos at a given concentration before reaching 10 somites are listed as XX; on Lhx1a expansion caused by analog treatment, 3 μM: key: effective (+); partially effective (+/−); ineffective (−); Analogs that killed all embryos at a given concentration before reaching 10 somites are listed as XX; on Lhx1a expansion caused by analog treatment, 400 nM: key: effective (+); partially effective (+/−); ineffective (−); Analogs that killed all embryos at a given concentration before reaching 10 somites are listed as XX; on Lhx1a expansion caused by analog treatment, 800 nM: key: effective (+); partially effective (+/−); ineffective (−); Analogs that killed all embryos at a given concentration before reaching 10 somites are listed as XX
Summary of the method: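 Zebrafish embryos treated with compound, then colorimetric whole-mount in situ hybridization (65° C) for lhx1a mRNA at 10 somites. Embryos with expanded kidney field counted manually as percent of total. EC50 taken as 50% point of percent-expansion trendline; compounds also classed effective, partial or ineffective versus PTBA at matched concentration.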

[1] = 3 μM from 2 hpf, 10-somite embryos
[2] = 800 nM from 2 hpf, 10-somite embryos
[3] = 1.5 μM from 2 hpf, 10-somite embryos
[4] = Danio rerio, 1.5 μM from 2 hpf, 10-somite embryos, read-out: lhx1a expansion, percent of treated embryos
[5] = Danio rerio, percent of embryos with expanded kidney field, 1.5 μM, read-out: Expansion of Cells (including repeats* and recounts**) 1.5 μM
[6] = Danio rerio, 3 μM from 2 hpf, 10-somite embryos, read-out: lhx1a expansion, percent of treated embryos

Row | SMILES | size of the kidney field (kidney field) | phenotype in initial chemical screen (zebrafish embryos) | Lhx1a expansion caused by analog treatment, 3 μM (renal progenitor cells; [1]) | Dead (zebrafish embryos) | Edemic 1 (E1) (zebrafish embryos) | Edemic 2 (E2) (zebrafish embryos) | Edemic 3 (E3) (zebrafish embryos) | Wild-type (WT) (zebrafish embryos) | further results
1 | N=C(N)SCc1ccc(Cl)cc1Cl.O=[N+]([O-])c1c(O)c(Cl)cc(Cl)c1Cl [NSC35400] | did not affect the size of the kidney field | pericardial edema |  |  |  |  |  |  | 
2 | COc1ccc(/C=C(\C#N)C(N)=O)c(OC)c1 [NSC134664] | did not affect the size of the kidney field | pericardial edema |  |  |  |  |  |  | 
3 | N=C(N)c1ccc(N=Nc2c(O)ccc3c2[nH]c2ccccc23)cc1 [NSC357777] | did not affect the size of the kidney field | pericardial edema |  |  |  |  |  |  | 
4 | O=C(O)CCCS(=O)(=O)c1ccccc1 [PSOBA, 4-(phenylsulfonyl)butanoic acid, reference compound] |  |  | − | 0 | 0 | 0 | 0 | 36 | HDAC activity elicited by 10 μg HeLa extract, percent of the control value (human HDACs): 70%; lhx1a expansion, percent of treated embryos (renal progenitor cells; [1]): no ability to expand renal progenitor cells
5 | COC(=O)CCCSc1ccc(F)cc1 [UPHD-00030, methyl 4-[(4-fluoro-phenyl)sulfanyl]butanoate] |  |  |  | 36 | 0 | 0 | 0 | 0 | Lhx1a expansion caused by analog treatment, 200 nM (renal progenitor cells; 200 nM from 2 hpf, 10-somite embryos): +/−; Lhx1a expansion caused by analog treatment, 400 nM (renal progenitor cells; 400 nM from 2 hpf, 10-somite embryos): +/−; Lhx1a expansion caused by analog treatment, 800 nM (renal progenitor cells; [2]): +; lhx1a expansion, percent of treated embryos (renal progenitor cells; [2]): 64%; Lhx1a expansion caused by analog treatment, 1.5 μM (renal progenitor cells; [3]): +; lethality before the 10-somite stage (renal progenitor cells; 3 μM): killed all treated embryos; responders at 1.5 µM (renal progenitor cells; [4]): 100%; responders at 1.5 µM (renal progenitor cells; [5]): 100%; responders at 0.2 µM (renal progenitor cells; Danio rerio, read-out: lhx1a expansion, percent of treated embryos, 200 nM from 2 hpf, 10-somite embryos): 22%; responders at 0.4 µM (renal progenitor cells; Danio rerio, read-out: lhx1a expansion, percent of treated embryos, 400 nM from 2 hpf, 10-somite embryos): 26%; responders at 0.8 µM (renal progenitor cells; Danio rerio, read-out: lhx1a expansion, percent of treated embryos, 800 nM from 2 hpf, 10-somite embryos): 64%; EC50 (renal progenitor cells; Danio rerio, first pass EC50 from percent expansion (Excel trendline), average where several experiments): 485 nM; Expansion of Cells (including repeats* and recounts**) 3 μM (renal progenitor cells; percent of embryos with expanded kidney field, 3 μM): All dead
6 | CC(C)(C)OC(=O)CCCSc1ccccc1 [tert-butyl 4-(phenylthio)butanoate] |  |  | +/− | 0 | 3 | 0 | 0 | 33 | responders at 3 µM (renal progenitor cells; [6]): 25%
7 | CCCC(CCC)C(=O)O [valproic acid, reference compound] |  |  | +/− | 0 | 11 | 0 | 0 | 25 | responders at 3 µM (renal progenitor cells; [6]): 20%
8 | O=C(CCCSc1ccc(Cl)cc1)NO [UPHD-00027, 4-[(4-chloro-phenyl)sulfanyl]-N-hydroxybutanamide] |  |  | + | 14 | 0 | 0 | 22 | 0 | Lhx1a expansion caused by analog treatment, 800 nM (renal progenitor cells; [2]): +/−; Lhx1a expansion caused by analog treatment, 1.5 μM (renal progenitor cells; [3]): +; responders at 1.5 µM (renal progenitor cells; [4]): 97%; responders at 0.8 µM (renal progenitor cells; Danio rerio, percent of embryos with expanded kidney field, 800 nM, read-out: Expansion of Cells (including repeats* and recounts**) 800 nM): 17%; responders at 1.5 µM (renal progenitor cells; [5]): 97%; responders at 3 µM (renal progenitor cells; Danio rerio, percent of embryos with expanded kidney field, 3 μM, read-out: Expansion of Cells (including repeats* and recounts**) 3 μM): 94%
